Test results published in patent US20180264094A1, “PERSONALISED IMMUNOGENIC PEPTIDE IDENTIFICATION PLATFORM” (priority 2017, published 2018).
“Also recorded” adds a separate entry of the source. Where no end group is shown, it is not given here.

What was measured:
[1] = system: metastatic ovarian adenocarcinoma; test: MRI of tumor lesions of patient treated with PIT vaccine (Table 28); assay type: in vivo, human; conditions: before PIT vaccine
From the text: • Disease was confined primarily to liver and lymph nodes. The use of MRI limits detection of lung (pulmonary) metastasis • May 2016-January 2017: Olaparib treatment • Dec. 25, 2016 (before PIT vaccine treatment) There was dramatic reduction in tumor burden with confirmation of response obtained at FU2 • January-March 2017—TOPO protocol (topoisomerase) • Apr. […] 21 2017 START PIT • Jul. […] 26, 2017—CBP+Gem+Avastin • Sep.

T cell responses = conditions: percentage of study subjects with positive T cell responses measured in the clinical trials; cited from earlier work
[2] = in vivo; cited from earlier work
[3] = system: Vaccine antigen specific CTL responses; conditions: published immune response rate (CTL) of the clinical study population; cited from earlier work
[4] = published Disease Control Rate (ORR where no DCR data), RECIST; cited from earlier work
EGFRvIII = conditions: cited from earlier work
[5] = system: glioblastoma multiforme (GBM); conditions: cited from earlier work
[6] = cited from earlier work

Q: With `CC[C@@]1(O)C(=O)OCc2c1cc1n(c2=O)Cc2cc3c(CN(C)C)c(O)ccc3nc2-1` [Hycamtin] as the molecule, how does the “Lesion response (% Δ from BL)” value ([1]; SUM, FU3, after TOPO protocol) read?
A: −68.9%

Q: And the “Lesion response (% Δ from BL)” value ([1]; TL1, FU3 (Apr. 6, 2017), after TOPO protocol)?
A: −44.8%

Q: And the “Lesion response (% Δ from BL)” value ([1]; TL2, FU3, after TOPO protocol)?
A: −47.1%

Q: What about the “Lesion response (% Δ from BL)” value ([1]; TL3, FU3, after TOPO protocol) of the same molecule?
A: −62.0%

Q: And the “Lesion response (% Δ from BL)” value ([1]; TL4, FU3, after TOPO protocol)?
A: −100.0%

Q: With `O=C(c1cc(Cc2n[nH]c(=O)c3ccccc23)ccc1F)N1CCN(C(=O)C2CC2)CC1` [Olaparib] as the molecule, how does the “Lesion response (% Δ from BL)” value ([1]; SUM of target lesions, FU1, during Olaparib treatment) read?
A: −66.3%

Q: What about the “Lesion response (% Δ from BL)” value ([1]; SUM, FU2, Olaparib treatment) of the same molecule?
A: −76.0%

Q: And the “Lesion response (% Δ from BL)” value ([1]; TL1, FU1, patient, MRI, during Olaparib treatment)?
A: −56.1%

Q: And the “Lesion response (% Δ from BL)” value ([1]; TL1, FU2 (Dec. 25, 2016), Olaparib treatment)?
A: −44.4%

Q: What about the “Lesion response (% Δ from BL)” value ([1]; TL2, FU1, during Olaparib treatment) of the same molecule?
A: −100.0%

Q: And the “Lesion response (% Δ from BL)” value ([1]; TL2, FU2, Olaparib treatment)?
A: −100.0%

Q: What about the “Lesion response (% Δ from BL)” value ([1]; TL3, FU1, during Olaparib treatment) of the same molecule?
A: −59.4%

Q: And the “Lesion response (% Δ from BL)” value ([1]; TL3, FU2, Olaparib treatment)?
A: −62.3%

Q: And the “Lesion response (% Δ from BL)” value ([1]; TL4, FU1, during Olaparib treatment)?
A: −65.8%

Q: What about the “Lesion response (% Δ from BL)” value ([1]; TL4, FU2, Olaparib treatment) of the same molecule?
A: −100.0%

Q: For “ALDQCKTSCALMQQHYDQTSCFSSP (additional peptide 7) [25 mer peptide vaccine, source antigen ITGB8]”, which “Response rate (Clinical Trials)” value (T cell responses) is on record?
A: 28%

Q: For Abciximab, which ADA-related adverse event [2] is on record?
A: anaphylaxis

Q: For Adalimumab, which ADA-related adverse event [2] is on record?
A: anti-drug antibodies and treatment failure

Q: With Basiliximab as the molecule, how does the ADA-related adverse event [2] read?
A: anaphylaxis

Q: With Epoetin as the molecule, how does the ADA-related adverse event [2] read?
A: Antibody-mediated pure red cell aplasia

Q: For Erythropoietin, which ADA-related adverse event [2] is on record?
A: pure red cell aplasia

Q: Which ADA-related adverse event [2] does the source give for Etanercept here?
A: no apparent effect on safety

Q: Which “Response rate (Clinical Trials)” value (T cell responses) does the source give for “FPPKDDHTLKFLYDDNQRPYPP (additional peptide 4) [22 mer peptide vaccine, source antigen TOP2A]” here?
A: 11%

Q: With Factor-IX as the molecule, how does the ADA-related adverse event [2] read?
A: anaphylaxis

Q: Which “Response rate (Clinical Trials)” value (T cell responses) does the source give for “GRGSTTTNYLLDRDDYRNTSD (additional peptide 2) [21 mer peptide vaccine, source antigen ADA17]” here?
A: 11%

Q: With “ImMucin: anti-MUC1 signal peptide vaccine, ref 15; likely the 21 mer MTPGTQSPFFLLLLLTVLTVV” as the molecule, how does the “Clinical Trial Response Rate” value [3] read?
A: 90%

Q: What about the DCR [4] of the same molecule?
A: 73%

Q: Which ADA-related adverse event [2] does the source give for Infliximab here?
A: anaphylaxis

Q: What does the source list for Ipilimumab?
A: Clinical Trial Response Rate [3]: 72%; DCR [4]: 60%

Q: Which Responders (EGFRvIII; Clinical trial (Phase II), cellular immune response by DTH reaction test, EGFRvIII-expressing GBM patients) does the source give for “LEEKKGNYVVTDHC (also: conjugated to KLH) [Rindopepimut, 13-amino-acid peptide vaccine spanning the EGFRvIII mutation with additional C-terminal cysteine]” here?
A: 3/18

Q: What about the Response rate (EGFRvIII; Clinical trial (Phase II), cellular immune response by DTH reaction test) of the same molecule?
A: 16.6%

Q: What about the “patients developing cellular immune response assessed by DTH reaction test” value (EGFRvIII; phase II, peptide conjugated to KLH, intradermal, newly diagnosed EGFRvIII-expressing GBM) of the same molecule?
A: 3 out of 18

Q: And the “HR (overall survival)” value ([5]; Rindopepimut group versus control group, 95% CI 0.79-1.30)?
A: 1.01

Q: What about the median overall survival ([5]; phase III, Rindopepimut and temozolomide (n=371)) of the same molecule?
A: 20.1 months

Q: Which “Response rate (Clinical Trials)” value (T cell responses) does the source give for “LKKGAADGGKLDGNAKLNRSLK (additional peptide 3) [22 mer peptide vaccine, source antigen BAP31]” here?
A: 11%

Q: Which “Response rate (Clinical Trials)” value (T cell responses) does the source give for “MMNLMQPKTQQTYTYD (additional peptide 1) [16 mer peptide vaccine, source antigen JUP]” here?
A: 0%

Q: With “MTPGTQSPFFLLLLLTVLTVV (additional peptide 10)” as the molecule, how does the “Response rate (Clinical Trials)” value (T cell responses) read?
A: 90%

Q: Which ADA-related adverse event [2] does the source give for OKT3 here?
A: anaphylaxis

Q: With Pegloticase as the molecule, how does the ADA-related adverse event [2] read?
A: anti-dug antibody, treatment failure

Q: With “QRPPFSQLHRFLADALNT (additional peptide 6) [18 mer peptide vaccine, source antigen DDR1]” as the molecule, how does the “Response rate (Clinical Trials)” value (T cell responses) read?
A: 17%

Q: With “RYRKPDYTLDDGHGLLRFKST (additional peptide 5) [21 mer peptide vaccine, source antigen Abl-2]” as the molecule, how does the “Response rate (Clinical Trials)” value (T cell responses) read?
A: 17%

Q: With “SSKALQRPV (additional peptide 11) [9 mer peptide vaccine, source antigen Bcr-Abl]” as the molecule, how does the “Response rate (Clinical Trials)” value (T cell responses) read?
A: 0%

Q: What does the source list for Thrombopoietin [TPO]?
A: most immunogenic region by State of Art class II HLA restricted epitope identification ([6]; EpiVax/Genentech, US20040209324 A1): C-terminal end of TPO; immunotoxic region, experimental proof in published literature ([6]; in vivo): N-terminal end of TPO; immunogenicity / anti-drug antibodies (ADA) ([6]; patients treated with TPO drug): highly immunogenic protein drug causing toxicity in many patients; also recorded: Most individuals treated with TPO drug made anti-drug antibodies (ADA); ADA-related adverse event [2]: thrombocitopenia

Q: Which ADA-related adverse event [2] does the source give for Ustekinumab here?
A: anti-ustekinumab antibodies, affected

Q: Which “Response rate (Clinical Trials)” value (T cell responses) does the source give for YLEPGPVTA here?
A: 28%

Q: With recombinant factor VIII as the molecule, how does the ADA-related adverse event [2] read?
A: anaphylaxis
